This passage reports IC50 results from US20170121315A1, “HETEROBICYCLICALLY SUBSTITUTED 4-OXOBUTANE ACID DERIVATIVES AND USE THEREOF” (priority 2014, published 2017).

Common to all, as to type: biochemical
For assay [1], the target named is T1, MMP-14 (Homo sapiens, UniProt P50281).
T1 construct: purchased R&D Systems 918-MP
Description: In vitro MMP-14 inhibition test. The following applies: human MMP-14. From the text: (§1) The MMP-mediated amidolytic cleavage of a suitable peptide substrate leads to an increase in fluorescent light here too. The signal intensity of the fluorescent light is directly proportional to the enzyme activity. The active concentration of a test compound at which half the enzyme is inhibited (50% signal intensity of the fluorescent light) is reported as the IC50 value.
Recombinant MMP-14 (R&D Systems, 918-MP) is enzymatically activated in accordance with the manufacturer's instructions using recombinant furin (R&D Systems, 1503-SE). 1 μl of the test compound to be analysed (as a solution in DMSO, suitable concentrations e.g. 1 nM to 30 μM) is pipetted into 24 μl of activated enzyme (final concentration e.g. 0.5 nM) in reaction buffer (50 mM Tris/HCl pH 7.5, 10 mM CaCl2, 150 mM NaCl, 0.05% Brij®-35) in a white 384-hole microtiter plate (MTP). The enzymatic reaction is started by adding the intramolecularly quenched Mca-Lys-Pro-Leu-Gly-Leu-Dpa(Dnp)-Ala-Arg-NH2 substrate (final concentration e.g. 5 μM; R&D Systems, ES-010), so as to result in a total test volume of 50 μl. The course of the MMP-14 reaction is measured by measuring the fluorescence intensity (excitation 320 nm, emission 410 nm) over a suitable period of time (e.g. over 120 min at a temperature of 32° C.).

Assay [2] deals with T2, MMP-3 (Homo sapiens, UniProt P08254).
T2 construct: purchased R&D Systems 513-MP
T2 sequence (P08254 100-477): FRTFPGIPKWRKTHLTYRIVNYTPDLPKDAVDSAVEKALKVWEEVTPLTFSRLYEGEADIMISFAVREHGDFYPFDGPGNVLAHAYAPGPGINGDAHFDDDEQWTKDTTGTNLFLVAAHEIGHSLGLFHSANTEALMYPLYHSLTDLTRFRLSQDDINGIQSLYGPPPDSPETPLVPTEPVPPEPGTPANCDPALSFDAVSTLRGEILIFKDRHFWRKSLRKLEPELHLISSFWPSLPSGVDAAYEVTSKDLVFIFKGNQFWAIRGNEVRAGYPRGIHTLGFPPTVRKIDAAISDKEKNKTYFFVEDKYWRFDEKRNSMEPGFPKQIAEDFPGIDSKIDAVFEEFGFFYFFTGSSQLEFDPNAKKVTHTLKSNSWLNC
As to the kind of experiment: In vitro MMP-3 inhibition test. The following applies: human MMP-3.
Description: as §1
(§2) Recombinant MMP-3 (R&D Systems, 513-MP) is chemically activated in accordance with the manufacturer's instructions using APMA. 1 μl of the test compound to be analysed (as a solution in DMSO, suitable concentrations e.g. 1 nM to 30 μM) is pipetted into 24 μl of activated enzyme (final concentration e.g. 2 nM) in reaction buffer (50 mM Tris/HCl pH 7.5, 10 mM CaCl2, 150 mM NaCl, 0.05% Brij®-35) in a white 384-hole microtiter plate (MTP). The enzymatic reaction is started by adding the intramolecularly quenched Mca-Arg-Pro-Lys-Pro-Val-Glu-Nval-Trp-Arg-Lys(Dnp)-NH2 substrate (final concentration e.g. 10 μM; R&D Systems, ES-002), so as to result in a total test volume of 50 μl. The course of the MMP-3 reaction is measured by measuring the fluorescence intensity (excitation 320 nm, emission 410 nm) over a suitable period of time (e.g. over 120 min at a temperature of 32° C.).

Assay [3] addresses T3, MMP-8 (Homo sapiens, UniProt P22894).
T3 construct: purchased R&D Systems 908-MP
As to the kind of experiment: In vitro MMP-8 inhibition test. The following applies: human MMP-8.
Description: as §1
as §2, with “Recombinant MMP-8” for “Recombinant MMP-3”, “Systems, 908-MP)” for “Systems, 513-MP)”, “e.g. 0.5” for “e.g. 2”, “quenched Mca-Pro-Leu-Gly-Leu-Dpa(Dnp)-Ala-Arg-NH2” for “quenched Mca-Arg-Pro-Lys-Pro-Val-Glu-Nval-Trp-Arg-Lys(Dnp)-NH2”, “Systems, ES-001),” for “Systems, ES-002),”, “the MMP-8” for “the MMP-3”

What is called IC50 is the concentration that gives 50% inhibition. High values mean weaker potency in that assay, low ones greater potency in that assay.

T3 sequence (P22894 101-467): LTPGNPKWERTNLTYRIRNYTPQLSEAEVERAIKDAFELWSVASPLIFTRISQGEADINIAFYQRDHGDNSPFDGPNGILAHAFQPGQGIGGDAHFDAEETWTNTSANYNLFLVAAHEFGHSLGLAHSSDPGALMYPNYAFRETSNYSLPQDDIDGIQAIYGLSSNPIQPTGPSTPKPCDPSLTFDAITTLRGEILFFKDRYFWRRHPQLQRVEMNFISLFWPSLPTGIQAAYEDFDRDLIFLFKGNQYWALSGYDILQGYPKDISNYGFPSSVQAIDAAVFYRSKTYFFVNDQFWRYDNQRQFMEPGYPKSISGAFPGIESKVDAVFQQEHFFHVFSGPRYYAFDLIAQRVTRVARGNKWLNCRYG

Turning to `O=C(CC(CCn1nnc2ccccc2c1=O)C(=O)O)c1coc2cc(OCC3CCCC3)ccc12` (single isomer, unassigned; (+)) [Example 80, (+)-4-[6-(Cyclopentylmethoxy)-1-benzofur-3-yl]-4-oxo-2-[2-(4-oxo-1,2,3-benzotriazin-3(4H)-yl)ethyl]butanoic acid], the IC50 in assay [1] was 1.9 µM; in assay [2], 5.7 µM; in assay [3], 0.44 µM.
For `CCCCCOc1ccc2cc(C(=O)CC(CCn3nnc4ccccc4c3=O)C(=O)O)sc2c1` (racemic) [Example 118, (+/−)-4-Oxo-2-[2-(4-oxo-1,2,3-benzotriazin-3(4H)-yl)ethyl]-4-[6-(pentyloxy)-1-benzothiophen-2-yl]butanoic acid], in that order: 19 µM, 16 µM and 9.3 µM.
For `CCCCCCCOc1ccc2oc(C(=O)CC(CCn3nnc4ccccc4c3=O)C(=O)O)cc2c1` (racemic) [Example 31, (+/−)-4-[5-(Heptyloxy)-1-benzofur-2-yl]-4-oxo-2-[2-(4-oxo-1,2,3-benzotriazin-3(4H)-yl)ethyl]butanoic acid], in that order: above 40 µM, above 40 µM and 35 µM.
`O=C(CC(CCn1nnc2ccccc2c1=O)C(=O)O)c1cc2cc(OCCCc3ccccc3)ccc2o1` (racemic) [Example 37, (+/−)-4-Oxo-2-[2-(4-oxo-1,2,3-benzotriazin-3(4H)-yl)ethyl]-4-[5-(3-phenylpropoxy)-1-benzofur-2-yl]butanoic acid]: the IC50 in assay [1] is above 40 µM; in assay [2] it was 39 µM; in assay [3], 12 µM.
For `NC(=O)c1cccc(COc2ccc3oc(C(=O)CC(CCn4nnc5ccccc5c4=O)C(=O)O)cc3c2)c1` (single isomer, unassigned; (+)) [Example 34, (+)-4-{5-[(3-Carbamoylbenzyl)oxy]-1-benzofur-2-yl}-4-oxo-2-[2-(4-oxo-1,2,3-benzotriazin-3(4H)-yl)ethyl]butanoic acid], the concentration for half-maximal inhibition (IC50) in assay [1] was 7.9 µM; in assay [2], 34 µM; in assay [3], 4.9 µM.
`O=C(CC(CCn1nnc2ccccc2c1=O)C(=O)O)c1cc2cc(OCCC3CCCC3)ccc2o1` (racemic) [Example 7, (+/−)-4-[5-(2-Cyclopentylethoxy)-1-benzofur-2-yl]-4-oxo-2-[2-(4-oxo-1,2,3-benzotriazin-3(4H)-yl)ethyl]butanoic acid]: the half-inhibitory concentration (IC50) in assay [1] was above 40 µM; in assay [2] it was 27 µM; in assay [3], 22 µM.
For `O=C(CC(CCn1nnc2ccccc2c1=O)C(=O)O)c1noc2cc(OCc3cccnc3)ccc12` (racemic) [Example 148, (+/−)-4-Oxo-2-[2-(4-oxo-1,2,3-benzotriazin-3(4H)-yl)ethyl]-4-[6-(pyridin-3-ylmethoxy)-1,2-benzoxazol-3-yl]butanoic acid], in that order: 8.5 µM, 9.1 µM and 0.27 µM.
`O=C(CC(CCn1nnc2ccccc2c1=O)C(=O)O)c1coc2cc(OCC3CCCCC3)ccc12` (single isomer, unassigned; (+)) [Example 82, (+)-4-[6-(Cyclohexylmethoxy)-1-benzofur-3-yl]-4-oxo-2-[2-(4-oxo-1,2,3-benzotriazin-3(4H)-yl)ethyl]butanoic acid]: the half-inhibitory concentration (IC50) in assay [1] worked out at 2.5 µM; in assay [2], 16 µM; in assay [3], 0.58 µM.
For `O=C(CC(CCn1nnc2ccccc2c1=O)C(=O)O)c1cc2cc(OCCCC(F)(F)F)ccc2o1` (single isomer, unassigned; enantiomer 2) [Example 13, (+)-4-Oxo-2-[2-(4-oxo-1,2,3-benzotriazin-3(4H)-yl)ethyl]-4-[5-(4,4,4-trifluorobutoxy)-1-benzofur-2-yl]butanoic acid (enantiomer 2)], the results for the IC50 in assay [1], in assay [2] and in assay [3] were 17 µM, above 40 µM and 5 µM, respectively.
Regarding `O=C(CC(CCn1nnc2ccccc2c1=O)C(=O)O)c1noc2cc(OCC3CC3)ccc12` (racemic) [Example 150, (+/−)-4-[6-(Cyclopropylmethoxy)-1,2-benzoxazol-3-yl]-4-oxo-2-[2-(4-oxo-1,2,3-benzotriazin-3(4H)-yl)ethyl]butanoic acid], the 50% inhibitory concentration (IC50) in assay [1] is 0.9 µM; in assay [2] it was 33 µM; in assay [3], 0.4 µM.
For `O=C(CC(CCn1nnc2ccccc2c1=O)C(=O)O)c1onc2cc(OCc3ccccc3)ccc12` (racemic) [Example 156, (+/−)-4-[6-(Benzyloxy)-2,1-benzoxazol-3-yl]-4-oxo-2-[2-(4-oxo-1,2,3-benzotriazin-3(4H)-yl)ethyl]butanoic acid], in that order: 9.3 µM, 13 µM and 2.8 µM.
For `O=C(CC(CCn1nnc2ccccc2c1=O)C(=O)O)c1coc2cc(OCCC3CCCC3)ccc12` (racemic) [Example 75, (+/−)-4-[6-(2-Cyclopentylethoxy)-1-benzofur-3-yl]-4-oxo-2-[2-(4-oxo-1,2,3-benzotriazin-3(4H)-yl)ethyl]butanoic acid], in that order: 6.5 µM, above 40 µM and 3.3 µM.
For `O=C(CC(CCn1nnc2ccccc2c1=O)C(=O)O)c1cc2cc(OCCC3CCOCC3)ccc2o1` (racemic) [Example 6, (+/−)-4-Oxo-2-[2-(4-oxo-1,2,3-benzotriazin-3(4H)-yl)ethyl]-4-{5-[2-(tetrahydro-2H-pyran-4-yl)ethoxy]-1-benzofur-2-yl}butanoic acid], in that order: 37 µM, 26 µM and 3.9 µM.
With `O=C(CC(CCn1nnc2ccccc2c1=O)C(=O)O)c1cc2cc(OCCc3ccccc3Cl)ccc2o1` (racemic) [Example 1, (+/−)-4-{5-[2-(2-Chlorophenyl)ethoxy]-1-benzofur-2-yl}-4-oxo-2-[2-(4-oxo-1,2,3-benzotriazin-3(4H)-yl)ethyl]butanoic acid], the 50% inhibitory concentration (IC50) in assay [1], in assay [2] and in assay [3] was above 40 µM throughout.
Regarding `Cc1cccc(COc2ccc3oc(C(=O)CC(CCn4nnc5ccccc5c4=O)C(=O)O)cc3c2)c1` (racemic) [Example 51, (+/−)-4-{5-[(3-Methylbenzyl)oxy]-1-benzofur-2-yl}-4-oxo-2-[2-(4-oxo-1,2,3-benzotriazin-3(4H)-yl)ethyl]butanoic acid], the 50% inhibitory concentration (IC50) in assay [1] is above 40 µM; in assay [2], above 40 µM; in assay [3] it was 34 µM.
For `CCCCCOc1ccc2c(C(=O)CC(CCn3nnc4ccccc4c3=O)C(=O)O)coc2c1` (racemic) [Example 89, (+/−)-4-Oxo-2-[2-(4-oxo-1,2,3-benzotriazin-3(4H)-yl)ethyl]-4-[6-(pentyloxy)-1-benzofur-3-yl]butanoic acid], the IC50 in assay [1] is 13 µM; in assay [2] it was above 40 µM; in assay [3] it was 6.7 µM.
As for `O=C(CC(CCn1nnc2ccccc2c1=O)C(=O)O)c1cc2cc(OCc3ccccc3)ccc2o1` (single isomer, unassigned; (+)) [Example 30, (+)-4-[5-(Benzyloxy)-1-benzofur-2-yl]-4-oxo-2-[2-(4-oxo-1,2,3-benzotriazin-3(4H)-yl)ethyl]butanoic acid], the figures for the IC50 in assay [1], in assay [2] and in assay [3] were 31 µM, above 40 µM and 32 µM, respectively.
